Source: ChEMBL document CHEMBL5728890, “HDAC6 inhibitors and imaging agents” (2021)

Tests used:
[1] = target: Histone deacetylase 5 (Homo sapiens, UniProt Q9UQL6); assay: (§1) IC50 Assay: IC50 measurements were conducted by BPS Biosciences (Table 1) or by Nanosyn (Table 1A) with an established fluorescence assay.
[2] = target: Histone deacetylase 3 (Homo sapiens, UniProt O15379); assay: as §1
[3] = target: Histone deacetylase 4 (Homo sapiens, UniProt P56524); assay: as §1
[4] = target: Histone deacetylase 1 (Homo sapiens, UniProt Q13547); assay: as §1
Sequence of Histone deacetylase 1 (Q13547 whole entry): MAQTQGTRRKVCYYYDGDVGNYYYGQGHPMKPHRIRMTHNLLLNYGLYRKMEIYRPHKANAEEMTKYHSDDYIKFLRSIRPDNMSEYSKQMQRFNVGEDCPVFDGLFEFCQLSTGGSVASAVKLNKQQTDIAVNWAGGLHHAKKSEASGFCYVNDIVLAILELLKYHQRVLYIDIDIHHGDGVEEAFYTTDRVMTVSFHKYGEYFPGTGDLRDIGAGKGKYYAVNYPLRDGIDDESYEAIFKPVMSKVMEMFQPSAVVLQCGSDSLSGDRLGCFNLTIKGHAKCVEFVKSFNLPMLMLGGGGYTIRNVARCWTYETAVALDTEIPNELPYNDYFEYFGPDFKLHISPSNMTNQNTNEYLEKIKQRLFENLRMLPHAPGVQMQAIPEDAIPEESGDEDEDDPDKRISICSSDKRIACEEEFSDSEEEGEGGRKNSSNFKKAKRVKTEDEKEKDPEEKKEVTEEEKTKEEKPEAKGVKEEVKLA

[5] = target: T1, Polyamine deacetylase HDAC10 (Homo sapiens, UniProt Q969S8); assay: as §1
T1 sequence (Q969S8 whole entry): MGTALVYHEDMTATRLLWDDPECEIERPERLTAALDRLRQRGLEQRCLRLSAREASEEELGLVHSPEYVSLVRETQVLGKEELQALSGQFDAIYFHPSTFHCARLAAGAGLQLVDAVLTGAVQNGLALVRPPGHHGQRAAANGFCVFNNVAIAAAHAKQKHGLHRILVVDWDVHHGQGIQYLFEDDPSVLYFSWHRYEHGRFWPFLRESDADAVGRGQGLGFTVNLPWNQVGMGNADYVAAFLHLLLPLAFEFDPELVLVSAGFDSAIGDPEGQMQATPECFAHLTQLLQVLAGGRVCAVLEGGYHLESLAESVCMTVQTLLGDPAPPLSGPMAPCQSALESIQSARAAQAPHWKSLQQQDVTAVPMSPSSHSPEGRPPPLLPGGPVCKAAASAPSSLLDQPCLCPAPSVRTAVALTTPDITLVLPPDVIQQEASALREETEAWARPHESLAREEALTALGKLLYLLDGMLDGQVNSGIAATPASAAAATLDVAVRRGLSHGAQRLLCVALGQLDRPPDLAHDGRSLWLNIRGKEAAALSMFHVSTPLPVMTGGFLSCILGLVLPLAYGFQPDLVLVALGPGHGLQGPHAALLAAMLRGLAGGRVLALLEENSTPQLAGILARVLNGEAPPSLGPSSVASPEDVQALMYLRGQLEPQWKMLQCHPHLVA

[6] = target: T2, Histone deacetylase 8 (Homo sapiens, UniProt Q9BY41); assay: as §1
T2 sequence (Q9BY41 whole entry): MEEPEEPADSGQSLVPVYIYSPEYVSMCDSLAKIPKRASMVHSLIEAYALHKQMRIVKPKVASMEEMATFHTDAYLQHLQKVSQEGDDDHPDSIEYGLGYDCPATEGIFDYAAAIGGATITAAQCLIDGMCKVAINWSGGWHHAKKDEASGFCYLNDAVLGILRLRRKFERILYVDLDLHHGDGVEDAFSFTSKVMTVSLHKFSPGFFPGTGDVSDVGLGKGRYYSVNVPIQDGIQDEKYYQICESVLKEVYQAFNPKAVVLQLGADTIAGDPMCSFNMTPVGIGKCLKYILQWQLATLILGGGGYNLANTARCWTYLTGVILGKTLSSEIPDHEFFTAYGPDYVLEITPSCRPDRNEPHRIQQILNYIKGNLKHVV

[7] = target: T3, Histone deacetylase 11 (Homo sapiens, UniProt Q96DB2); assay: as §1
T3 sequence (Q96DB2 whole entry): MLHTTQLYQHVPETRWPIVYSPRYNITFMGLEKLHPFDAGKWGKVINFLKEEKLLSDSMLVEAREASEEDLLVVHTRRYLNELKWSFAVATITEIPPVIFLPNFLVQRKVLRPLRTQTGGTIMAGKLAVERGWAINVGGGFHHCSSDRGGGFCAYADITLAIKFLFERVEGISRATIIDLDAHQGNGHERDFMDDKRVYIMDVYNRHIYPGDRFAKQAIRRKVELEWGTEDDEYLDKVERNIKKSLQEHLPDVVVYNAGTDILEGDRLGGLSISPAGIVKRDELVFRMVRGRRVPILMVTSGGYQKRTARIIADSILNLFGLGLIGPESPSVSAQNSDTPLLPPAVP

[8] = target: Histone deacetylase 9 (Homo sapiens, UniProt Q9UKV0); assay: as §1
Sequence of Histone deacetylase 9 (Q9UKV0 whole entry): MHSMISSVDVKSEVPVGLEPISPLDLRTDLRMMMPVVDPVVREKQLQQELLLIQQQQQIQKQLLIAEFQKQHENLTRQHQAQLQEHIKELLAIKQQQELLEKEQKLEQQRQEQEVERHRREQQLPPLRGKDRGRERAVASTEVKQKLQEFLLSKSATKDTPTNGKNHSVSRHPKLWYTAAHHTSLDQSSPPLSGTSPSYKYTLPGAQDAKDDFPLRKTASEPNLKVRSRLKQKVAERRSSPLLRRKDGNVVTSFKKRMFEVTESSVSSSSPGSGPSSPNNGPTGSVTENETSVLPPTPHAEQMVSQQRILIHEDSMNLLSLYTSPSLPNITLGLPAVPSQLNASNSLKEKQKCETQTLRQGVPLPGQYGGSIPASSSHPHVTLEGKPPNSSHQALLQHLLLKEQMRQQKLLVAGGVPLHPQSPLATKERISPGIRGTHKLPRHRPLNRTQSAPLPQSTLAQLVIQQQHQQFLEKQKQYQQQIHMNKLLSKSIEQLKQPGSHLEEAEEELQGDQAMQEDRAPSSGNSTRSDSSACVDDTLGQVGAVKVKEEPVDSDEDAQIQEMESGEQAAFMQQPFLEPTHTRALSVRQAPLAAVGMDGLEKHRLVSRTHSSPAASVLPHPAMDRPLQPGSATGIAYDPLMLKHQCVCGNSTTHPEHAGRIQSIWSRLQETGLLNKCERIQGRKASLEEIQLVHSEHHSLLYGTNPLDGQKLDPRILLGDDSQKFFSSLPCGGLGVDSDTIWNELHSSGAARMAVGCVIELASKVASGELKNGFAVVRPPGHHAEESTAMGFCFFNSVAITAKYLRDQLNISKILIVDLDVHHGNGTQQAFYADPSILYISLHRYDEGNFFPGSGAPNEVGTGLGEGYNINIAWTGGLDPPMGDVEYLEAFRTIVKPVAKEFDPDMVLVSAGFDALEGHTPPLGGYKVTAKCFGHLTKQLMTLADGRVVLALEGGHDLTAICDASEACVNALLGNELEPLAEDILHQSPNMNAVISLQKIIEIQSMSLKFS

[9] = target: T4, Protein deacetylase HDAC6 (Homo sapiens, UniProt Q9UBN7); assay: as §1
T4 sequence (Q9UBN7 whole entry): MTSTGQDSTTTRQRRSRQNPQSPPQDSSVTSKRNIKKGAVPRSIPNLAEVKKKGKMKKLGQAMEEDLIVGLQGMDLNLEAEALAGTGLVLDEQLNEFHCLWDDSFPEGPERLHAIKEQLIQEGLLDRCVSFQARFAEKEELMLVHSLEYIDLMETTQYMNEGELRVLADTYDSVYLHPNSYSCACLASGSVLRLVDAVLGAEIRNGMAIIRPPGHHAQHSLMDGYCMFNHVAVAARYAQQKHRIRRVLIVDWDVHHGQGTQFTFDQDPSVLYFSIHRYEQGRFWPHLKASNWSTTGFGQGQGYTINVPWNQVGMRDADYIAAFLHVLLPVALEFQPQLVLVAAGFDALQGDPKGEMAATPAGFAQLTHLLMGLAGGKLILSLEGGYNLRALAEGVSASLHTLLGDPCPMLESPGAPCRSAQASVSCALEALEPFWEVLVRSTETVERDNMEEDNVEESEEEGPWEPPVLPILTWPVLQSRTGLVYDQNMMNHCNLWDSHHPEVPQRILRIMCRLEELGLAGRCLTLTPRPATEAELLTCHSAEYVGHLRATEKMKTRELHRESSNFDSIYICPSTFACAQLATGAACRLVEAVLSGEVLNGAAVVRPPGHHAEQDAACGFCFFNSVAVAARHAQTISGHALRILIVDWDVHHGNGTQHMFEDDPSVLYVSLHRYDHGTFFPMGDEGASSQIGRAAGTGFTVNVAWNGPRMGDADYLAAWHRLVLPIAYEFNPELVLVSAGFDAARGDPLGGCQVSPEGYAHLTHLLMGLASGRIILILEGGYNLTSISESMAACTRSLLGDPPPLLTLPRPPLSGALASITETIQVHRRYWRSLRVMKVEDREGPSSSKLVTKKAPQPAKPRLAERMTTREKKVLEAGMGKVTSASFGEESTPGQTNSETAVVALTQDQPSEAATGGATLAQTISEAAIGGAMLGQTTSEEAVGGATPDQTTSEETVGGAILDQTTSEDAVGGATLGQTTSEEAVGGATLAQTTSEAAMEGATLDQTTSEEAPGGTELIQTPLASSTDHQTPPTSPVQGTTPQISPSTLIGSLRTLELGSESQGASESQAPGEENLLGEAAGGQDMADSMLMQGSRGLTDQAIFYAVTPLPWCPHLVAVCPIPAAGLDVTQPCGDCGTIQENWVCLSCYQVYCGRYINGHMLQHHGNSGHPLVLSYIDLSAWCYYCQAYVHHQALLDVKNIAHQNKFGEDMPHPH

[10] = target: T5, Histone deacetylase 7 (Homo sapiens, UniProt Q8WUI4); assay: as §1
T5 sequence (Q8WUI4 whole entry): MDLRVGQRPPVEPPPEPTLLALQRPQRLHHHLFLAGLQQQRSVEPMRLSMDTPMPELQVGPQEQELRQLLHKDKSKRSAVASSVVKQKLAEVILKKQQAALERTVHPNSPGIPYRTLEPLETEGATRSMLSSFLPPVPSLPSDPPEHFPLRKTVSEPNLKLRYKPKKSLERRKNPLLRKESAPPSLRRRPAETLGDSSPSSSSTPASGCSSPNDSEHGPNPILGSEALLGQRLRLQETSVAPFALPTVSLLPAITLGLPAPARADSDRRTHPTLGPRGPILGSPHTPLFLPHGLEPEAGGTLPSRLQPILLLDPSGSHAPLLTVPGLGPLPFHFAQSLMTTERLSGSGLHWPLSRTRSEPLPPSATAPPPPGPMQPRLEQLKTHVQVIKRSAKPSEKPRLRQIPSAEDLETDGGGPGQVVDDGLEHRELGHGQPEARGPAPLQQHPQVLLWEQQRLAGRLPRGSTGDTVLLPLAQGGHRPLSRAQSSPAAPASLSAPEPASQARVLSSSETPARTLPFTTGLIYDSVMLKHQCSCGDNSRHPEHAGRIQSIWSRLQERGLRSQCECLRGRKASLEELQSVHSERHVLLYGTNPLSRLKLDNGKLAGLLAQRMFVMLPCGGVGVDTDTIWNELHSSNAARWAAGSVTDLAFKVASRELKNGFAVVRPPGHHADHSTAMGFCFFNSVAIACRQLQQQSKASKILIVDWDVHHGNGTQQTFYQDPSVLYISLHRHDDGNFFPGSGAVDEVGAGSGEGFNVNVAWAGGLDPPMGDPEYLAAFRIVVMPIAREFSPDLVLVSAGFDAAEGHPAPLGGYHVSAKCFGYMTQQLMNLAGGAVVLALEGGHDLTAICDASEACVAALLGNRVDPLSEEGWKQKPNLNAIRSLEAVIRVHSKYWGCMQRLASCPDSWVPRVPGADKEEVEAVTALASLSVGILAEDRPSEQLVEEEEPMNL

Sequence of Histone deacetylase 5 (Q9UQL6 whole entry): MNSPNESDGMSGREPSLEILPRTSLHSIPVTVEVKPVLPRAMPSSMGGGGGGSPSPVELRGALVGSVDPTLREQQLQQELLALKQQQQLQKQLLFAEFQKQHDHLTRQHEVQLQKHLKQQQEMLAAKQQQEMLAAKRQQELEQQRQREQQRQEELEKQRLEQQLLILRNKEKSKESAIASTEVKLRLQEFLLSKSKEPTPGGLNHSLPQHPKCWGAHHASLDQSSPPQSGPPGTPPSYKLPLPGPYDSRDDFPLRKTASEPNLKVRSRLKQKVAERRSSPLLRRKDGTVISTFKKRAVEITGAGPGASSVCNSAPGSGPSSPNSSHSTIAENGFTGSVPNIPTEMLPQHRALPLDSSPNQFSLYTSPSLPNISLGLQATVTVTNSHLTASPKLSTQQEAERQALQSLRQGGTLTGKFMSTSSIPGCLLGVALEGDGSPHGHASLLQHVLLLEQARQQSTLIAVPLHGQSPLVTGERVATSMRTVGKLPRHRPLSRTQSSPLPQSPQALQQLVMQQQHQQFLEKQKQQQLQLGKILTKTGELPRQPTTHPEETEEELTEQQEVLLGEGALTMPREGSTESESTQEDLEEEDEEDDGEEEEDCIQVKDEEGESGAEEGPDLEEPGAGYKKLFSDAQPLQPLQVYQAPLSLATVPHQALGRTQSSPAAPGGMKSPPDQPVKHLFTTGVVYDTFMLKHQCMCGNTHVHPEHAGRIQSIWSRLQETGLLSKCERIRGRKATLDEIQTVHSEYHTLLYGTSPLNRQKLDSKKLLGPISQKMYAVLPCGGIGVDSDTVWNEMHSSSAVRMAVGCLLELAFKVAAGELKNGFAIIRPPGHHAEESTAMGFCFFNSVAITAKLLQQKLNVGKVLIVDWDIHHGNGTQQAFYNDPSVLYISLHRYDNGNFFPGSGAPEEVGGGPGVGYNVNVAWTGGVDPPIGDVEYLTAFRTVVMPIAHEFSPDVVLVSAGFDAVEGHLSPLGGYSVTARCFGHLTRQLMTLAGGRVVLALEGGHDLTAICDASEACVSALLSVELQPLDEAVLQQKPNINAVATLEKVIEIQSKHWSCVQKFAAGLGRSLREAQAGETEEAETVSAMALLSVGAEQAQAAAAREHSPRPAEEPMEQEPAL
Sequence of Histone deacetylase 4 (P56524 whole entry): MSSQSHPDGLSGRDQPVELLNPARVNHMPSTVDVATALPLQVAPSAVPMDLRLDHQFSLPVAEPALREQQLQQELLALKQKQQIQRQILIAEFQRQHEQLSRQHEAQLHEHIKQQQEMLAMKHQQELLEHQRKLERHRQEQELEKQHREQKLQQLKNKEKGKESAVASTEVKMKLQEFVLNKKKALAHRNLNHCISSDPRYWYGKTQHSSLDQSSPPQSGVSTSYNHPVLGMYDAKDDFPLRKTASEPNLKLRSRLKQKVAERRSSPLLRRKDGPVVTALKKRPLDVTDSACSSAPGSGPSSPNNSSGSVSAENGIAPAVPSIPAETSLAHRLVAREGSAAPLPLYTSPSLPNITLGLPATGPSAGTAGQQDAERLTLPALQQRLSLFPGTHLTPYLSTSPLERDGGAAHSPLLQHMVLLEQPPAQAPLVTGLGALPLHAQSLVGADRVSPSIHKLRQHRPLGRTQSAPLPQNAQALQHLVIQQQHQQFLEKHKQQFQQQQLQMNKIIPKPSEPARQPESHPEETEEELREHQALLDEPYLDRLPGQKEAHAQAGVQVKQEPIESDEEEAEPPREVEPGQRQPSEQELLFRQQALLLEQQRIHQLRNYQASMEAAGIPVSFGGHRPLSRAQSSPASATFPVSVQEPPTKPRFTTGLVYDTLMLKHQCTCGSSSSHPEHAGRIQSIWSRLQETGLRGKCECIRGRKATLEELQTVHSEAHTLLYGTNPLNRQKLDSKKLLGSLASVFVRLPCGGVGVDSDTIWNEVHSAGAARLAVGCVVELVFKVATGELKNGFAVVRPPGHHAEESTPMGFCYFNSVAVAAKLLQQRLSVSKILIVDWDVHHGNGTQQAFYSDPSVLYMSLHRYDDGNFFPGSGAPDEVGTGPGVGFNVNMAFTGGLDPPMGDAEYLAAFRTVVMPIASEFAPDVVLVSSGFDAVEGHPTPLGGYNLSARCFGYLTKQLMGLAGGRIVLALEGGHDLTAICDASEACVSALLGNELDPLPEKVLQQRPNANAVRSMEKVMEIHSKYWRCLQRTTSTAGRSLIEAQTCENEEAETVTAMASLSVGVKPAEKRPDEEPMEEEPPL
Sequence of Histone deacetylase 3 (O15379 whole entry): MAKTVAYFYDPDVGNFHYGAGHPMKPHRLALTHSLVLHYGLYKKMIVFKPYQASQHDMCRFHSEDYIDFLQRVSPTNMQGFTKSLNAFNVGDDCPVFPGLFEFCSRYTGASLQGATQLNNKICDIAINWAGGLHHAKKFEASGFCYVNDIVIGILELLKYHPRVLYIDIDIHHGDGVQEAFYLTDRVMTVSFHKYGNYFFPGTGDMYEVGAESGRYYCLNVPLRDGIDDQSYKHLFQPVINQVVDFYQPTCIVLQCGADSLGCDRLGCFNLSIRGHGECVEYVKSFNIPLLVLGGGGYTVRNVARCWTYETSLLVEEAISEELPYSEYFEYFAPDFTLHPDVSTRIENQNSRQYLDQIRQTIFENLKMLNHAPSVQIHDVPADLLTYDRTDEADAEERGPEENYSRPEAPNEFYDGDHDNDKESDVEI

SMILES | IC50 [1] | IC50 [2] | IC50 [3] | IC50 [4] | IC50 [5] | IC50 [6] | IC50 [7] | IC50 [8] | IC50 [9] | IC50 [10]
CN(Cc1ccc(/C=C/C(=O)NO)cc1F)CC12CC3CC(CC(C3)C1)C2 | > 1 µM | 0.023 µM | > 1 µM | 0.017 µM | 0.033 µM | > 1 µM | > 1 µM | > 1 µM | 0.18 µM | > 1 µM
O=C(CCCCCCNC(=O)c1cnc(N(c2ccccc2)c2ccccc2)nc1)NO [RICOLINOSTAT] | – | – | – | – | > 1 µM | – | – | – | – | –
CC(=O)Nc1ccc(C(=O)Nc2ccccc2N)cc1 [TACEDINALINE] | – | – | – | – | – | – | 2.83 µM | – | – | –
